Bridge positions count the residues as written; N and C are the ends. Ends that are not written are not given here.
How the values were obtained:
[1] = biological target: rScl1.3FL; test: Surface plasmon resonance binding of C-C′ cyclic peptide to immobilized rScl1.3FL; set-up: species or system Streptococcus pyogenes (M3-type GAS, MGAS315); settings: Biacore 3000, 25°C; rScl1.3FL immobilized on streptavidin chip (~100 RU); peptide 10-500 μM; HBS buffer pH 7.4; 1:1 Langmuir model; duplicates; read-out: dissociation constant KD (SPR)
Procedure: Real time binding assays were performed at 25°C on a Biacore 3000 Surface Plasmon Resonance (SPR) instrument (GE Healthcare). For immobilization, rScl1.3FL protein containing the C-terminal Strep-tag II was injected at a concentration of 40 μM on streptavidin-coated sensor chip, SA Biacore, until the desired level of immobilization was achieved (averaged value of 100 RU). Binding assays were carried out by injecting the C-C′ cyclic peptide at concentrations ranging between 10 and 500 μM. Experiments were carried out in HBS buffer (10 mM HEPES, 150 mM NaCl, 3 mM EDTA, pH 7.4). The association phase (kon) was followed for 270 s, whereas the dissociation phase (koff) was followed for 300 s. The reference chip sensorgrams were subtracted from sample sensorgrams. Experiments were carried out in duplicates. Kinetic parameters were estimated assuming a 1:1 Langmuir binding model and using version 4.1 Evaluation Software (GE Healthcare).

[2] = biological target: rScl1.3FL; test: Tryptophan fluorescence quenching binding assay in solution; set-up: species or system Streptococcus pyogenes (M3-type GAS, MGAS315); settings: rScl1.3FL 30 μM, peptide 0-300 μM, 25.0°C, excitation 298 nm, emission 333 nm; 1:1 model; duplicates
Procedure: rScl1.3FL protein, at a concentration of 30 μM, was incubated with increasing concentrations of C-C′ cyclic peptide (0–300 μM) at 25.0°C, using an excitation wavelength of 298.0 nm and a fluorescence emission wavelength ranging from 300 to 400 nm. The acquisition parameters were set as follows: excitation and emission slits at 5 nm; 120 nm/min scan rate; 1.00 nm data interval averaging time at 0.500 s, PMT voltage at “high.” Fluorescence values were recorded at 333 nm, and subtracted from the fluorescence intensity of the ligand-free protein, generating −Δfluorescence. The −Δfluorescence values were plotted against the peptide concentration (Williamson, [2013]). Experiments were carried out in duplicates. A control assay was carried out employing the buffer as titrant to assess that the dilution effect was under 3%, not affecting the results.

[3] = biological target: recombinant full-length Scl1.3FL protein (streptococcal collagen-like protein 1, M3-type, repaired allele) (Streptococcus pyogenes (group A Streptococcus), M3-type strain MGAS315); test: SPR; Biacore 3000, 25°C; rScl1.3FL with C-terminal Strep-tag II immobilised on a streptavidin-coated SA chip (about 100 RU); C-C′ cyclic peptide injected at 10-500 μM; HBS buffer (10 mM HEPES, 150 mM NaCl, 3 mM EDTA, pH 7.4); 1:1 Langmuir model
[4] = biological target: recombinant full-length Scl1.3FL protein (streptococcal collagen-like protein 1, M3-type, repaired allele) (Streptococcus pyogenes (group A Streptococcus), M3-type strain MGAS315); test: other fluorescence titration; tryptophan fluorescence quenching in solution; rScl1.3FL at 30 μM with 0-300 μM C-C′ cyclic peptide, 25.0°C, excitation 298 nm, read at 333 nm; 1:1 model

Molecule “CRVTYSSPEDGIHELFC (disulfide 1-17 (inferred)) [C-C′ cyclic peptide, Disulfide-cyclised, acetylated and amidated peptide mimicking the C-C′ β-hairpin of the EDA domain of cellular fibronectin]” has a Kd [1] of 63.3 µM and a Kd [2] of 44.5 ± 9 µM.

B1: C-C′ cyclic peptide (EDA-derived, mimics the C-C′ β-hairpin of the extra domain A of cellular fibronectin) (peptide)
peptide: Ac-CRVTYSSPEDGIHELFC-NH2
modifications: disulfide 1-17
SMILES: CC[C@H](C)[C@@H]1NC(=O)CNC(=O)[C@H](CC(=O)O)NC(=O)[C@H](CCC(=O)O)NC(=O)[C@@H]2CCCN2C(=O)[C@H](CO)NC(=O)[C@H](CO)NC(=O)[C@H](Cc2ccc(O)cc2)NC(=O)[C@H]([C@@H](C)O)NC(=O)[C@H](C(C)C)NC(=O)[C@H](CCCNC(=N)N)NC(=O)[C@@H](NC(C)=O)CSSC[C@@H](C(N)=O)NC(=O)[C@H](Cc2ccccc2)NC(=O)[C@H](CC(C)C)NC(=O)[C@H](CCC(=O)O)NC(=O)[C@H](Cc2c[nH]cn2)NC1=O
B1 gave a Kd [3] of 63.3 µM and a Kd [4] of 44.5 µM.
